From patent publication US11420959B2, “DACOS type NNRTIS amino acid ester derivative, preparation method thereof, pharmaceutical composition, and application thereof” (YUNNAN UNIVERSITY, priority 2018, dated 2022)
Read-outs that look alike come from different tables or passages of the source.

How the values were obtained:
HIV-1IIIB = assay: Syncytium inhibition experiment, C8166 cells infected with HIV-1IIIB; type: cell-based; settings: Human immunodeficiency virus 1, 72 h, syncytium count, three days
Description: The specific method was described below.
Syncytium inhibition experiment: 100 μL of C8166 cell suspension (4×10^5/mL) was inoculated into each well of a 96-well cell culture plate containing 5-fold serial dilutions of the compounds, followed by addition of HIV-1IIIB diluted supernatant (MOI=0.04). Three replicate wells were set for each serial concentration. […] The cells were incubated at 37° C. in a 5% CO2 incubator for three days. The number of the syncytia was counted in five non-overlapping fields of view by using an inverted microscope (100×). […] Calculation formula: cytopathic inhibition rate (%)=(1−number of syncytia in experimental wells/number of syncytia in control well)×100%.

[1] = Cytotoxicity experiment (MTT method) on C8166 cells; type: cell-based; settings: human
Description: Cytotoxicity experiment: The toxicity of the compounds on C8166 cells was determined by MTT method. In a 96-well cell culture plate, the compounds were subjected to 5-fold serial dilution and 100 μL of C8166 cell suspension (4×10^5/mL) was added into each well. Three replicate wells were set for each concentration. At the same time, a cell control group without drugs and drug control groups with Zidovudine (AZT) or Nevirapine (NVP) were set. The cells were incubated at 37° C. in a 5% CO2 incubator for three days, followed by the addition of MTT solution into each well, and then the cells were incubated at 37° C. for 4 hours. 15% SDS-50% DMF was added to each well and the cells were incubated at 37° C. in a 5% CO2 incubator overnight. After mixing evenly, the OD values were measured by BIO-TEK ELx800 ELISA instrument (determination wavelength: 570 nm; reference wavelength: 630 nm).

[2] = due to strong hydrophobicity; cited from earlier work

Which EC50 (HIV-1IIIB) does the source give for `CC(C)c1c(CC2CCCCC2)nc(SCC(=O)c2ccc(OC(=O)C3CCCN3)cc2)[nH]c1=O` (stereo not shown) [Compound I-15] here?
The EC50 was 0.012 µM.

And the CC50 at 3 days [1]?
Its CC50 at 3 days is 98.3 µM.

What does the source list for `Cc1c(CC2CCCCC2)nc(SCC(=O)c2ccc(OC(=O)CN)cc2)[nH]c1=O` [Compound I-23]?
EC50 (HIV-1IIIB): 0.008 µM; CC50 at 3 days [1]: > 200 µM

Which EC50 (HIV-1IIIB) does the source give for `CC(C)c1c(CC2CCCCC2)nc(SCC(=O)c2ccc(OC(=O)C(N)Cc3ccccc3)cc2)[nH]c1=O` (stereo not shown) [Compound I-21] here?
The EC50 was 0.004 µM.

And the CC50 at 3 days [1]?
Its CC50 at 3 days is 95 µM.

Which results are given for `CCc1c(CC2CCCCC2)nc(SCC(=O)c2ccc(OC(=O)C(N)CCC(N)=O)cc2)[nH]c1=O` (stereo not shown) [Compound I-11]?
EC50 (HIV-1IIIB): 0.005 µM; CC50 at 3 days [1]: 118 µM

For `CC(C)c1c(CC2CCCCC2)nc(SCC(=O)c2ccc(OC(=O)CN)cc2)[nH]c1=O` [Compound I-17], which EC50 (HIV-1IIIB) is on record?
Its EC50 is 0.003 µM.

And the CC50 at 3 days [1]?
Its CC50 at 3 days is 191 µM.

What does the source list for `CCc1c(CC2CCCCC2)nc(SCC(=O)c2ccc(OC(=O)C(N)Cc3ccccc3)cc2)[nH]c1=O` (stereo not shown) [Compound I-7]?
EC50 (HIV-1IIIB): 0.009 µM; CC50 at 3 days [1]: 90.1 µM

Which results are given for `CCc1c(CC2CCCCC2)nc(SCC(=O)c2ccc(OC(=O)C(N)Cc3cnc[nH]3)cc2)[nH]c1=O` (stereo not shown) [Compound I-10]?
EC50 (HIV-1IIIB): 0.012 µM; CC50 at 3 days [1]: 199 µM

What does the source list for `CCc1c(CC2CCCCC2)nc(SCC(=O)c2ccc(OC(=O)[C@H](N)[C@H](C)CC)cc2)[nH]c1=O` [Compound I-3]?
EC50 (HIV-1IIIB): 0.005 µM; CC50 at 3 days [1]: 134 µM

Which EC50 (HIV-1IIIB) does the source give for `CCc1c(CC2CCCCC2)nc(SCC(=O)c2ccc(OC(=O)C(N)CC(N)=O)cc2)[nH]c1=O` (stereo not shown) [Compound I-12] here?
The EC50 was 0.004 µM.

And the CC50 at 3 days [1]?
Its CC50 at 3 days is 120 µM.

Which EC50 (HIV-1IIIB) does the source give for `CCc1c(CC2CCCCC2)nc(SCC(=O)c2ccc(OC(=O)C(N)CCCCN)cc2)[nH]c1=O` (stereo not shown) [Compound I-9] here?
The EC50 was 0.006 µM.

And the CC50 at 3 days [1]?
The CC50 at 3 days was 101 µM.

For `CCc1c(CC2CCCCC2)nc(SCC(=O)c2ccc(OC(=O)C(N)CCSC)cc2)[nH]c1=O` (stereo not shown) [Compound I-8], which EC50 (HIV-1IIIB) is on record?
Its EC50 is 0.004 µM.

And the CC50 at 3 days [1]?
The CC50 at 3 days was 116 µM.

With `CCc1c(CC2CCCCC2)nc(SCC(=O)c2ccc(OC(=O)C(N)C(C)C)cc2)[nH]c1=O` (stereo not shown) [Compound I-13] as the compound, how does the EC50 (HIV-1IIIB) read?
The EC50 was 0.003 µM.

What about the CC50 at 3 days [1] of the same compound?
The CC50 at 3 days was 94.8 µM.

For `CC(C)c1c(CC2CCCCC2)nc(SCC(=O)c2ccc(OC(=O)C(N)Cc3c[nH]c4ccccc34)cc2)[nH]c1=O` (stereo not shown) [Compound I-16], which EC50 (HIV-1IIIB) is on record?
The EC50 was 0.004 µM.

What about the CC50 at 3 days [1] of the same compound?
Its CC50 at 3 days is 118 µM.

For `CCc1c(CC2CCCCC2)nc(SCC(=O)c2ccc(OC(=O)C(N)Cc3c[nH]c4ccccc34)cc2)[nH]c1=O` (stereo not shown) [Compound I-5], which EC50 (HIV-1IIIB) is on record?
The EC50 was 0.004 µM.

What about the CC50 at 3 days [1] of the same compound?
Its CC50 at 3 days is 95.2 µM.

With `CC[C@@H](C)[C@@H](N)C(=O)Oc1ccc(C(=O)CSc2nc(CC3CCCCC3)c(C(C)C)c(=O)[nH]2)cc1` [Compound I-14] as the compound, how does the EC50 (HIV-1IIIB) read?
Its EC50 is 0.004 µM.

And the CC50 at 3 days [1]?
Its CC50 at 3 days is 186 µM.

With `CC(C)CC(N)C(=O)Oc1ccc(C(=O)CSc2nc(CC3CCCCC3)c(C(C)C)c(=O)[nH]2)cc1` (stereo not shown) [Compound I-18] as the compound, how does the EC50 (HIV-1IIIB) read?
Its EC50 is 0.004 µM.

What about the CC50 at 3 days [1] of the same compound?
The CC50 at 3 days was 97.4 µM.

With `CSCCC(N)C(=O)Oc1ccc(C(=O)CSc2nc(CC3CCCCC3)c(C(C)C)c(=O)[nH]2)cc1` (stereo not shown) [Compound I-20] as the compound, how does the EC50 (HIV-1IIIB) read?
The EC50 was 0.003 µM.

What about the CC50 at 3 days [1] of the same compound?
Its CC50 at 3 days is 153 µM.

What does the source list for `Cc1c(CC2CCCCC2)nc(SCC(=O)c2ccc(OC(=O)C(N)Cc3ccccc3)cc2)[nH]c1=O` (stereo not shown) [Compound I-22]?
EC50 (HIV-1IIIB): 0.01 µM; CC50 at 3 days [1]: 98.6 µM

For `CCc1c(CC2CCCCC2)nc(SCC(=O)c2ccccc2)[nH]c1=O` [DB02], which bioavailability [2] is on record?
The bioavailability was “low”.

For `CCc1c(CC2CCCCC2)nc(SCC(=O)c2ccc(OC(=O)C(N)CC(C)C)cc2)[nH]c1=O` (stereo not shown) [Compound I-2], which EC50 (HIV-1IIIB) is on record?
The EC50 was 0.003 µM.

What about the CC50 at 3 days [1] of the same compound?
Its CC50 at 3 days is 112 µM.

Which results are given for `CC(C)c1c(CC2CCCCC2)nc(SCC(=O)c2ccc(OC(=O)C(N)C(C)C)cc2)[nH]c1=O` (stereo not shown) [Compound I-19]?
EC50 (HIV-1IIIB): 0.003 µM; CC50 at 3 days [1]: 126 µM

With `CCc1c(CC2CCCCC2)nc(SCC(=O)c2ccc(OC(=O)[C@@H](C)N)cc2)[nH]c1=O` [Compound I-6] as the compound, how does the EC50 (HIV-1IIIB) read?
Its EC50 is 0.004 µM.

What about the CC50 at 3 days [1] of the same compound?
The CC50 at 3 days was 96 µM.

With `CSCCC(N)C(=O)Oc1ccc(C(=O)CSc2nc(CC3CCCCC3)c(C)c(=O)[nH]2)cc1` (stereo not shown) [Compound I-24] as the compound, how does the EC50 (HIV-1IIIB) read?
The EC50 was 0.012 µM.

And the CC50 at 3 days [1]?
The CC50 at 3 days was 199 µM.

With `Cc1ccnc2c1NC(=O)c1cccnc1N2C1CC1` [NVP, Nevirapine, reference compound] as the compound, how does the EC50 (HIV-1IIIB) read?
Its EC50 is 0.013 µM.

And the CC50 at 3 days ([1]; C8166 cells, MTT, three days, read-out: CC50)?
The CC50 at 3 days was 504 µM.

Which results are given for `CCc1c(CC2CCCCC2)nc(SCC(=O)c2ccc(OC(=O)C3CCCN3)cc2)[nH]c1=O` (stereo not shown) [Compound I-4]?
EC50 (HIV-1IIIB): 0.012 µM; CC50 at 3 days [1]: 95.4 µM

Which results are given for `CCc1c(CC2CCCCC2)nc(SCC(=O)c2ccc(OC(=O)CN)cc2)[nH]c1=O` [Compound I-1]?
EC50 (HIV-1IIIB): 0.004 µM; CC50 at 3 days [1]: 138 µM

Which CC50 at 3 days [1] does the source give for `Cc1cn([C@H]2C[C@H](N=[N+]=[N-])[C@@H](CO)O2)c(=O)[nH]c1=O` [AZT, Zidovudine, reference compound] here?
The CC50 at 3 days was > 749 µM.
